Laboratory results from BindingDB's records for doi:10.1021/cb400075f (Boehringer Ingelheim (Canada), 2013).

Assays:
[1] = molecular target: T1, Gag-Pol polyprotein (Human immunodeficiency virus type 1 group M subtype B (isolate NY5), UniProt P12497); assay: Capsid Assembly Assay
Text: In vitro capsid assembly assay (CAA) was used in a HTS to identify potential inhibitors of capsid assembly.

[2] = molecular target: T1, Gag-Pol polyprotein; assay: Capsid Assembly Assay; remark: listed apart in the source

Row | SMILES | IC50 [1] [nM] | Kd [2] [nM]
1 | CN(C)CCCn1c(-c2c[nH]nc2-c2ccccc2)nc2cc(-c3ccc(C(=O)O)cc3)ccc21 [Benzimidazole Inhibitor, 1] | 6100 | 43000
2 | O=C(O)c1ccc(-c2ccc3c(c2)nc(-c2c[nH]nc2-c2cccc(Cl)c2)n3CCCn2ccnc2)cc1 [Benzimidazole Inhibitor, 4] | 1200 | –
3 | O=C(O)c1ccc(-c2ccc3c(c2)nc(-c2c[nH]nc2-c2ccc(Cl)c(Cl)c2)n3CCCNC2CCCCC2)cc1 [Benzimidazole Inhibitor, 6] | 350 | 500
4 | CN(C)CCCn1c(-c2c[nH]nc2-c2ccc(C(F)(F)F)cc2)nc2cc(-c3ccc(C(=O)O)cc3)ccc21 [Benzimidazole Inhibitor, 2] | 1200 | 4300
5 | COCCN=CC1C(=O)N(C)c2ccc(C(F)(F)F)cc2N(c2ccccc2)C1=O (stereo unspecified) [Benzodiazepine Inhibitor, 7] | 890 | –
6 | O=C(O)c1ccc(-c2ccc3c(c2)nc(-c2c[nH]nc2-c2ccc(C(F)(F)F)cc2)n3CCCN2CCCCC2)cc1 [Benzimidazole Inhibitor, 5] | 670 | –
7 | O=C(O)c1ccc(-c2ccc3c(c2)nc(-c2c[nH]nc2-c2ccc(C(F)(F)F)cc2)n3CCCn2ccnc2)cc1 [Benzimidazole Inhibitor, 3] | 1400 | 8000
